{
  "source": "patent US12558343B2",
  "about": "“Medical use of icaritin” (Lunan Pharmaceutical Group Corporation, priority 2020, dated 2026)",
  "key": {"[1]": {"system": "IX-knockout mice with hemophilia", "experiment": "Tail-cut bleeding time of coagulation factor IX-knockout mice with hemophilia", "type": "in vivo", "method": "One hour after the last administration, the tails of the mice were cut and bleeding time of each mouse was measured."}, "[2]": {"system": "prolonged bleeding time caused by aspirin", "experiment": "Tail-cut bleeding time in mice, prolonged by aspirin", "type": "in vivo, ICR mice", "conditions": "aspirin 20 mg/kg i.g.", "method": "According to the body weight on the last day of the quarantine, the male and female animals were divided into six groups by a simplified random method, namely, a normal group (C), a model group (V), icaritin low-, medium- and high-dose groups (2, 6, and 18 mg/kg, L, M, H) and a positive control drug group (200 mg/kg of etamsylate, P).\nAfter 15 min of the modeling, the tails of the mice were cut and bleeding time of each mouse was measured."}, "[3]": {"experiment": "Blood routine examination of rats before/after icaritin (Efficacy Example 1)", "type": "in vivo, SD rats", "method": "Twenty-four rats were taken and divided into 3 groups with 8 rats in each group. […] 1.0 mL of blood was collected from the orbits before administration and 20 min after a last administration, wherein 0.5 mL was used for a blood routine examination and 0.5 mL was used to prepare anticoagulated blood. The blood was treated and analyzed on the flow cytometer according to the detection method of platelet activation by flow cytometry. An activation rate of platelets activated by adenosine diphosphate (basic value) before administration and an activation rate of platelets activated by adenosine diphosphate after administration were compared. At the same time, 50 μL of anticoagulated blood was taken from the rats before administration, adenosine diphosphate was not added, and a spontaneous activation rate of the anticoagulated blood of animals was measured using the same method. The animals were fasted for 16-24 h before each blood sampling."}, "[4]": {"system": "hemorrhagic transformation model induced by aspirin combined with cerebral ischemia-reperfusion", "experiment": "Hemorrhagic transformation after cerebral ischemia-reperfusion (MCAO) caused by aspirin, bleeding rate", "type": "in vivo, ICR mice", "conditions": "for Number of animals with cerebral hemorrhage: 24 h after MCAO; for Bleeding rate %: model group 85.7", "method": "5-week-old ICR male mice were fed to 6-week-old and divided into a control group, a model group, an icaritin-3 mg/kg group, an icaritin-6 mg/kg group, an icaritin-12 mg/kg group, and an icariin-12 mg/kg group according to body weight. From day 1 to day 3 after the grouping, the mice in each icaritin group were separately intragastrically administrated with 3, 6, and 12 mg/kg of icaritin and the mice in the icariin group was intragastrically administrated with 12 mg/kg of icariin once a day, and the mice in other groups were intragastrically administrated with a corresponding vehicle; and except the control group, the mice in other groups were intragastrically administrated with aspirin (100 mg/kg) or clopidogrel (15 mg/kg) once a day at a volume of 10 mL/kg.\nOn day 3, 10 min after the administration, the mice were anesthetized by intraperitoneal injection of 70 mg/kg of pentobarbital sodium and subjected to a cerebral ischemia-reperfusion (middle cerebral artery occlusion, MCAO) surgery with ischemia for 1 h and reperfusion for 23 h.\n24 h after the surgery was an end point of the experiment.\nBleeding rate: the mice were anesthetized by intraperitoneal injection of 70 mg/kg of pentobarbital sodium, a brain tissue was taken out, cerebral hemorrhage was recorded and a bleeding rate of the mice in each group was calculated. Cerebral hemorrhage rate %=number of animals with cerebral hemorrhage/number of surviving animals in each group×100."}, "[5]": {"system": "activated partial thromboplastin time", "experiment": "Activated partial thromboplastin time, rabbit model of acquired hemophilia A", "type": "in vivo, New Zealand rabbits", "method": "Twenty-four healthy New Zealand rabbits were selected and randomly divided into a control group, a model group and a treatment group with 8 rabbits in each group. Each rabbit weighed about 1.5 kg. The rabbits were fed in separate stainless steel cages at a room temperature of 18-25° C. The rabbits in each group were given a normal diet without any special treatment. One week later, the rabbit was anesthetized with 2% pentobarbital (1.5 ml/kg) via the marginal ear vein, and the left femoral vein of the rabbit was isolated and exposed for injection. The plasma of patients with acquired hemophilia A (confirmed by the Department of Hematology, Linyi People's Hospital) was intravenously injected into the rabbits in the model group and the treatment group at 2 ml/kg of rabbit body weight. The rabbits in the treatment group were immediately intragastrically administrated with icaritin at 18 mg/kg after the injection was completed and the rabbits in the model group were intragastrically administrated with a same amount of normal saline. The rabbits in the control group were intravenously injected with a same amount of normal human plasma. Blood was drawn from the marginal ear vein 30 min before and 30 min, 60 min, 90 min, and 120 min after the injection of the plasma separately, 3.8% of sodium citrate (1:9) was added for anticoagulation, and the anticoagulated blood was centrifuged at 3,000 r/m to separate plasma.\nReferring to the instructions of the kit, 0.1 mL of rabbit plasma was taken, 0.1 mL of a thromboplastin time reagent was added, the materials were mixed, an obtained mixture was subjected to warm bath at 37° C. for 2 min, 0.1 mL of 0.025 M calcium chloride pre-warmed at 37° C. was added, the materials were uniformly mixed, a value of thromboplastin time at each time point was measured by immediately starting a stopwatch, the thromboplastin time at each time point was repeatedly detected twice, and an average value was obtained."}, "[6]": {"system": "platelet aggregation induced by adenosine diphosphate", "experiment": "In-vitro platelet aggregation in platelet-rich plasma induced by adenosine diphosphate", "type": "cell-based, domestic rabbits", "conditions": "rabbit PRP, ADP 25 μmol/L, vs 1% dimethyl sulfoxide control", "method": "After domestic rabbits were locally anesthetized with procaine, common carotid artery was surgically separated, blood was collected and anticoagulated with 3.8% sodium citrate, the anticoagulated blood was centrifuged at 800 r/min for 10 min to prepare platelet-rich plasma (PRP), the remaining part was centrifuged at […] for 10 min to prepare platelet-poor plasma (PPP), and a platelet aggregation experiment was performed. 265 μL of PRP and 30 μL of icaritin were added to a test tube (to enable final concentrations of the icaritin to be 0.1 mmol/L, 0.5 mmol/L, and 5 mmol/L separately), incubation was performed for 5 min, 5 μL of adenosine diphosphate (at a final concentration of 25 μmol/L) was added as an inducer, and a maximum aggregation rate within 5 min was observed and recorded. 1% by mass of dimethyl sulfoxide was used as a control and a promoting effect of the icaritin of each concentration on platelet aggregation induced by adenosine diphosphate was observed."}},
  "data": [
    {"smiles": "COc1ccc(-c2oc3c(CC=C(C)C)c(O)cc(O)c3c(=O)c2O)cc1", "note": "[Icaritin]", "values": [
      {"measurement": "Bleeding time", "setting": "[1]; group B, 3 mg/kg i.g. once a day 11 days, 1 h after last administration, control 37.8 ± 12.4", "result": "25.5 ± 8.9", "unit": "min"},
      {"measurement": "Bleeding time", "setting": "[1]; group C, 6 mg/kg i.g. once a day 11 days", "result": "20.4 ± 6.9", "unit": "min"},
      {"measurement": "Bleeding time", "setting": "[1]; group D, 18 mg/kg i.g. once a day 11 days", "result": "16.5 ± 9.7", "unit": "min"},
      {"measurement": "Bleeding time", "setting": "[2]; group H, 18 mg/kg i.g. once a day 5 days", "result": "16.7 ± 7.2^$ $ & min"},
      {"measurement": "Bleeding time", "setting": "[2]; group L, 2 mg/kg i.g. once a day 5 days, tail cut 15 min after modeling", "result": "28.4 ± 9.8^$ min"},
      {"measurement": "Bleeding time", "setting": "[2]; group M, 6 mg/kg i.g. once a day 5 days", "result": "24.7 ± 7.3^$ min"},
      {"measurement": "Concentration of hemoglobin", "setting": "[3]; 3 mg/kg i.g. 3 days", "result": "180500 ± 11200", "unit": "µg/mL"},
      {"measurement": "Number of erythrocytes", "setting": "[3]; 3 mg/kg i.g. 3 days", "result": "7.213 ± 0.554 10^12/L"},
      {"measurement": "Number of leukocytes", "setting": "[3]; 3 mg/kg i.g. 3 days", "result": "1.832 ± 0.154 10^9/L"},
      {"measurement": "Number of platelets", "setting": "[3]; 3 mg/kg i.g. 3 days", "result": "1124 ± 209 10^9/L"},
      {"measurement": "Concentration of hemoglobin", "setting": "[3]; 6 mg/kg i.g. 3 days", "result": "179000 ± 9200", "unit": "µg/mL"},
      {"measurement": "Number of erythrocytes", "setting": "[3]; 6 mg/kg i.g. 3 days", "result": "6.783 ± 0.871 10^12/L"},
      {"measurement": "Number of leukocytes", "setting": "[3]; 6 mg/kg i.g. 3 days", "result": "1.653 ± 0.421 10^9/L"},
      {"measurement": "Number of platelets", "setting": "[3]; 6 mg/kg i.g. 3 days", "result": "1397 ± 143 10^9/L"},
      {"measurement": "Concentration of hemoglobin", "setting": "[3]; 18 mg/kg i.g. 3 days", "result": "181600 ± 9500", "unit": "µg/mL"},
      {"measurement": "Number of erythrocytes", "setting": "[3]; 18 mg/kg i.g. 3 days", "result": "7.235 ± 0.656 10^12/L"},
      {"measurement": "Number of leukocytes", "setting": "[3]; 18 mg/kg i.g. 3 days", "result": "1.761 ± 0.335 10^9/L"},
      {"measurement": "Number of platelets", "setting": "[3]; 18 mg/kg i.g. 3 days", "result": "1249 ± 166 10^9/L"},
      {"measurement": "Number of animals with cerebral hemorrhage", "setting": "[4]; 3 mg/kg i.g. Day 1-3 with aspirin 100 mg/kg, of 8 animals", "result": 3},
      {"measurement": "Bleeding rate %", "setting": "[4]; 3 mg/kg i.g. Day 1-3 with aspirin 100 mg/kg", "result": 37.5, "unit": "%"},
      {"measurement": "Number of animals with cerebral hemorrhage", "setting": "[4]; 6 mg/kg i.g. Day 1-3 with aspirin 100 mg/kg, of 8 animals", "result": 2},
      {"measurement": "Bleeding rate %", "setting": "[4]; 6 mg/kg i.g. Day 1-3 with aspirin 100 mg/kg", "result": 25.0, "unit": "%"},
      {"measurement": "Number of animals with cerebral hemorrhage", "setting": "[4]; 12 mg/kg i.g. Day 1-3 with aspirin 100 mg/kg, of 9 (icaritin) or 8 (icariin) animals", "result": 2},
      {"measurement": "Bleeding rate %", "setting": "[4]; 12 mg/kg i.g. Day 1-3 with aspirin 100 mg/kg", "result": 22.2, "unit": "%"},
      {"measurement": "Thromboplastin time", "setting": "[5]; icaritin 18 mg/kg i.g. after plasma injection, 30 min after injection", "result": "40.4 ± 3.23^$"},
      {"measurement": "Thromboplastin time", "setting": "[5]; icaritin 18 mg/kg i.g., 60 min after injection", "result": "39.9 ± 4.09$ $"},
      {"measurement": "Thromboplastin time", "setting": "[5]; icaritin 18 mg/kg i.g., 90 min after injection", "result": "40.4 ± 5.67$ $"},
      {"measurement": "Thromboplastin time", "setting": "[5]; icaritin 18 mg/kg i.g., 120 min after injection", "result": "41.3 ± 6.21^$ $"},
      {"measurement": "Thromboplastin time", "setting": "[5]; treatment group, 30 min before injection of patient plasma (before icaritin)", "result": "36.8 ± 4.12"},
      {"measurement": "Aggregation-promoting rate", "setting": "[6]; 0.1 mmol/L", "result": "23.3 ± 4.5", "unit": "%"},
      {"measurement": "Aggregation-promoting rate", "setting": "[6]; 0.5 mmol/L", "result": "38.9 ± 8.7", "unit": "%"},
      {"measurement": "Aggregation-promoting rate", "setting": "[6]; 5 mmol/L", "result": "52.2 ± 9.0", "unit": "%"}
    ]}
  ]
}
